Tested on: participants with center-involved diabetic macular edema (CI-DME)
Test: Randomized clinical trial of oral lamivudine versus placebo in DME: ETDRS best-corrected visual-acuity letter score (VALS)
Type: in vivo, human
Experimental: A single center randomized clinical trial was conducted at a tertiary center in São Paulo, Brazil in accordance with the provisions of the Declaration of Helsinki and Good Clinical Practice guidelines. The study was approved by the local institutional review board and study participants provided written informed consent. This study was registered in the Brazilian Registry of Clinical Trials (ReBEC) under the number RBR-87b6r5s. Latinofarma (Brazil) provided the lamivudine and placebo at no cost and also provided funding for bevacizumab which was repackaged in single-used vials by Citopharma (Brazil).
Participants were excluded if they had high-risk proliferative diabetic retinopathy, received any intravitreous injection or laser photocoagulation within the previous 6 months, positive serology for human immunodeficiency virus or hepatitis B virus, or an estimated glomerular rate filtration below 40 mL/min/1.73 m^2 determined with the use of the Cockcroft-Gault equation.
Randomization was performed at the sealed envelope website (https://sealedenvelope.com), in permuted blocks and with stratification according to visual acuity in the study eye. One physician who was not involved with patient assessment was responsible for the randomization and vial delivery to the patients. The study participants, assessing physicians, and OCT technicians were unaware of the treatment group assignment at all visits.
Placebo vials were provided by the same pharmaceutical company responsible for lamivudine production using the same vehicle. The vials were concealed and delivered to the study center. […] At the 4-week visit, participants were administered an intravitreous injection of bevacizumab (1.25 mg in an injection volume of 0.05 ml) in eyes with CI-DME if the best-corrected visual-acuity letter score (VALS) was less than 69 and the retinal central subfield thickness was 325 μm or more. Injection of bevacizumab was performed by the same physician following topical anesthesia, installation of a sterile lid speculum, and application of povidone-iodine drops. No antibiotic was administered after the procedure.
Visual acuity assessment was performed by two certified assessing physicians. The same participant could be assessed by a different physician on each visit. The exam was performed using a back-illuminated 4-meter Early Treatment Diabetic Retinopathy Study (ETDRS) chart. Different ETDRS charts were used to refine the refraction and to assess the right and left eye at each visit. If fewer than 20 letters were correctly identified at 4 meters, testing was also performed at 1 meter adding+0.75 sphere. The refraction was performed without pupil dilation, in the same exam room with a standardized background illumination.
The principal analysis compared lamivudine to placebo. Change in mean VALS from baseline was the primary outcome of interest. We sought to detect a difference of 6 letters in the VALS between groups. This effect size was chosen for power analyses because this change corresponds to a difference of more than 1 line on the ETDRS or Snellen eye charts, the minimal increase in visual acuity judged to be clinically meaningful. By estimating the standard deviation to be 6 letters, we calculated that 16 eyes in each group would provide the trial with 80% power (at a 5% two-sided alpha level) to detect this difference.
To analyze the change in VALS from baseline, a mixed-effects model was employed. Random effects were included in the model to account for subject-specific variability. […] The model's estimates, confidence intervals (CI), and P values were reported for each predictor.
The exams took place at the beginning of the treatment and after 4 weeks of using the medication. At the 4-week return, […] were administered an intravitreous injection of Avastin, one of the standard anti-VEGF treatments for DME. Four weeks after the injection (8 weeks from the start of the study) participants underwent another eye examination. […]

## Nc1ccn([C@@H]2CS[C@H](CO)O2)c(=O)n1 [Lamivudine]
Table 4, weeks 4 and 8
  Mixed model: change in visual acuity from baseline, Treatment (Lamivudine vs. Placebo), estimate: 11.86
Change from baseline to week 4
  Model-based contrast: change in visual acuity, Lamivudine - Placebo: 11.86
Change from baseline to week 8
  Model-based contrast: change in visual acuity, Lamivudine - Placebo: 18.99
Week 4, oral lamivudine
  percentage of eyes with improvement in VALS of 15 or more: 38%
Week 4, oral lamivudine 150 mg twice daily, before intravitreous bevacizumab
  mean change in VALS from baseline: 9.8 letters
Week 8, oral lamivudine plus intravitreous bevacizumab 1.25 mg at week 4
  mean improvement in VALS from baseline: 16.9 letters
Week 8, oral lamivudine plus intravitreous bevacizumab at week 4
  percentage of eyes with improvement in VALS of 15 or more: 56%

Source: patent publication US20260191861A1, “INFLAMMASOME AND VEGF INHIBITION FOR RETINAL VASCULAR DISEASES” (University of Virginia Patent Foundation, priority 2022, published 2026)
